In patent US8729014B2, “Specific HCV NS3 protease inhibitors” (RFS Pharma, LLC, priority 2010, dated 2014):

Assays:
Plasmin = target: T1, Plasmin (Homo sapiens, UniProt P00747); assay: Inhibition of human proteases: plasmin; assay type: biochemical
T1 construct: purchased Anaspec
Description: (§1) In an effort to circumvent similar toxicities, new protease inhibitors were evaluated for inhibition of a panel of important human proteases. The enzymes tested are Elastase (Neutrophil), Plasmin, Thrombin, and Cathepsin S.
(§2) Plasmin and Thrombin(Sensolyte RH110 Plasmin Activity Assay Kit and Sensolyte Thrombin Activity Assay Kit (Anaspec)): Reactions were conducted in a sample volume of 100 μL per well in a black 96 well plate. Protocol A was followed from the kit insert where the 2× assay buffer was diluted 1:1 with deionized water. Included in each assay were a positive control (diluted enzyme and no test compound), inhibitor control (contains diluted enzyme and plasmin inhibitor; component E from the kit or thrombin inhibitor; N-α-NAPAP synthetic inhibitor) and substrate control (assay buffer and substrate). Vehicle and autofluorescence controls were also performed. Drug dilutions were added (10 μL) at 10× concentrations in assay buffer. The enzyme was added at 40 μL/well at a concentration of 0.25 μg/mL (plasmin) and 1 μg/mL (thrombin) to all wells except the substrate control. Finally, 50 μL assay buffer containing substrate was added to each well. […] The fluorescence intensity was read on the Victor 3 plate reader at Ex/Em=490 nm/520 nm. […] Results are shown as substrate control adjusted percentages of maximum absorbance, which was given by the positive control.

[1] = tested on: Hepatitis C Virus NS3/4A protease A156T; assay: biochemical; settings: A156T vs Wild Type
[2] = target: Hepatitis C Virus NS3/4A protease A156T (Hepatitis C virus genotype 1b, UniProt O92972, A1182T); assay: biochemical
[3] = target: Hepatitis C Virus NS3/4A protease D168V (Hepatitis C virus genotype 1b, UniProt O92972, D1194V); assay: biochemical
[4] = tested on: Hepatitis C Virus NS3/4A protease D168V; assay: biochemical; settings: D168V vs Wild Type
Kallikrein = assay: Inhibition of human proteases: kallikrein; assay type: biochemical
[5] = target: Hepatitis C Virus NS3/4A protease A156S (Hepatitis C virus genotype 1b, UniProt O92972, A1182S); assay: biochemical
[6] = tested on: Hepatitis C Virus NS3/4A protease A156S; assay: biochemical; settings: A156S vs Wild Type
Cathepsin G = Cathepsin G (Homo sapiens, UniProt P08311); assay: Inhibition of human proteases: cathepsin G; assay type: biochemical
Chymo-trypsin = assay: Inhibition of human proteases: chymotrypsin; assay type: biochemical
[7] = Cytotoxicity assay in human PBM cells; assay type: cell-based; settings: human, human PBM cells
Description: (§3) The toxicity of the compounds was assessed in Vero, human PBM, CEM (human lymphoblastoid), MT-2, and HepG2 cells, as described previously (see Schinazi R. F., Sommadossi J.-P., Saalmann V., Cannon D. L., Xie M.-Y., Hart G. C., Smith G. A. & Hahn E. F. Antimicrob. Agents Chemother. 1990, 34, 1061-67). Cycloheximide was included as positive cytotoxic control, and untreated cells exposed to solvent were included as negative controls. The cytotoxicity IC50 was obtained from the concentration-response curve using the median effective method described previously (see Chou T.-C. & Talalay P. Adv. Enzyme Regul. 1984, 22, 27-55; Belen'kii M. S. & Schinazi R. F. Antiviral Res. 1994, 25,1-11).

human PBM cells = assay: Cytotoxicity assay in human PBM cells; assay type: cell-based; settings: Homo sapiens, PBMC; PBM cells, 100 μM
Description: as §3

[8] = target: Hepatitis C Virus NS3/4A protease T54A (Hepatitis C virus genotype 1b, UniProt O92972, T1080A); assay: biochemical
[9] = tested on: Hepatitis C Virus NS3/4A protease T54A; assay: biochemical; settings: T54A vs Wild Type
Chymase = Chymase (Homo sapiens, UniProt P23946); assay: Inhibition of human proteases: chymase; assay type: biochemical
Thrombin = target: T2, Thrombin (Homo sapiens, UniProt P00734); assay: Inhibition of human proteases: thrombin; assay type: biochemical
T2 construct: purchased Anaspec
Description: as §1, §2

[10] = target: T3, Elastase (Human Neutrophil) (Homo sapiens, UniProt P08246); assay: Inhibition of human proteases: elastase; assay type: biochemical
T3 construct: purchased Athens Research and Technology 16-14-051200
Description: as §1
Elastase (Human Neutrophil (Cat #16-14-051200 Athens Research and Technology, Athens Ga.)): Reactions were conducted in a sample volume of 100 μL per well in a clear 96 well plate. A 2× assay buffer was made containing 200 mM Tris-HCl (pH 7.5), 150 mM NaCl and 50% glycerol. For each sample 50 μL 2× assay buffer was added to each well. The substrate (MeOSuc-AAPV-pNA, Chromogenic Substrate, Cat #P-213, Enzo Life Sciences, Plymouth Meeting, Pa.; 50 mM stock in DMSO) was added to a final concentration of 1 mM. The drug dilutions were added (25 μL) at 4× concentrations in water. Finally, a mixture was made of 1 μL elastase and 22 μL water for each sample and 23 μL was added to each well. The samples were incubated at room temperature for 30 min. The absorbance at 405 nm was read on the Victor 3 plate reader. All samples were tested in duplicate. Results are shown as blank adjusted (no Elastase) percentages of maximum absorbance, which was given by a no inhibitor control.

Structure (SMILES): C=C[C@@H]1C[C@]1(NC(=O)[C@@H]1C[C@@H](OC(=O)N2Cc3cccc(F)c3C2)CN1C(=O)[C@@H](NC(=O)OC(C)(C)C)C(C)(C)C)C(=O)NS(=O)(=O)C1CC1 [Compound 10]
- IC50 (Plasmin): > 100000 nM
- Fold Increase of EC50 [1]: 6.7
- Fold Increase of EC90 [1]: 4.4
- EC50 [2]: 33 nM
- EC90 ([2]; A156T, read-out: Anti-HCV protease activity EC90): 130 nM
- EC50 [3]: 40 nM
- EC90 ([3]; D168V, read-out: Anti-HCV protease activity EC90): 630 nM
- Fold Increase of EC50 [4]: 8.1
- Fold Increase of EC90 [4]: 21.1
- IC50 (Kallikrein): 47000 nM
- EC50 [5]: 8 nM
- EC90 ([5]; A156S, read-out: Anti-HCV protease activity EC90): 85 nM
- Fold Increase of EC50 [6]: 1.6
- Fold Increase of EC90 [6]: 2.9
- IC50 (Cathepsin G): > 100000 nM
- IC50 (Chymo-trypsin): > 100000 nM
- IC50 [7]: > 100000 nM
- inhibition at 100 µM (human PBM cells): 17%
- EC50 [8]: 70 nM
- EC90 ([8]; T54A, read-out: Anti-HCV protease activity EC90): 850 nM
- Fold Increase of EC50 [9]: 15.0
- Fold Increase of EC90 [9]: 28.5
- IC50 (Chymase): > 100000 nM
- IC50 (Thrombin): > 100000 nM
- IC50 [10]: > 100000 nM
